Values of other authors in US20120083452A1, “Topical Anesthetic Uses of Szeto-Schiller Peptides” (priority 2010, published 2012).
Square brackets hold non-standard residues; d marks the D form. Ends that are not written are not given here. Dmt = Cc1cc(O)cc(C)c1C[C@H](N)C(=O)O

What was measured:
[1] = compared with SS-02
mice = mice studies
LDL = settings: compared with SS-02
isolated mitochondria = settings: for MPP+-induced inhibition of oxygen consumption: MPP+ (1-methyl-4-phenylpyridium)

| Substance | scavenging H2O2 [1] | treatment of Parkinson's Disease (PD) or Amyotrophic Lateral Sclerosis (ALS) (mice) | inhibiting LDL oxidation (LDL) | MPP+-induced inhibition of ATP production (isolated mitochondria) | MPP+-induced mitochondrial swelling (isolated mitochondria) | MPP+-induced inhibition of oxygen consumption (isolated mitochondria) |
| --- | --- | --- | --- | --- | --- | --- |
| D-Arg-2′,6′-Dmt-Lys-Phe-NH2 ([dR][Dmt]KF-NH2) [SS-31] | as effective as SS-02 | may be effective | as effective as SS-02 | prevented | prevented | prevented |
| Phe-D-Arg-Phe-Lys-NH2 (F[dR]FK-NH2; N-terminus assumed; SMILES N=C(N)NCCC[C@@H](NC(=O)[C@@H](N)Cc1ccccc1)C(=O)N[C@@H](Cc1ccccc1)C(=O)N[C@@H](CCCCN)C(N)=O) [SS-20] | eliminated the scavenging ability | may be effective | – | prevented | prevented | prevented |
